Reference: patent US20240228507A1, “GREEN SOLVENTS FOR CHEMICAL REACTIONS” (ECOLE POLYTECHNIQUE FÉDÉRALE DE LAUSANNE (EPFL), priority 2021, published 2024)

Assays:
[1] = Maximum absorbance of Nile Red dye in the solvent; type: physicochemical
Experimental: The absorbance spectra of 4-nitroaniline dye (cf. FIG. 10a), N,N-diethyl-4-nitroaniline dye (cf. FIG. 10b) as well as of Nile Red dye (cf. FIG. 10c) in the compounds 1, 3, 4 and 24 of claim 13 as well as in DMSO were measured. Nile Red absorbance is dependent on polarity and acidity, but as acidity is 0 in the case of aprotic solvents, the value is only polarity dependent. This differs from π*, which is both polarity and polarizability dependent. The maximum absorbance of Nile Red in 1, 3, 4 and 24 was measured to be 543, 536, 534.5 and 535 nm respectively. […] Values for 3, 4 and 24 are similar to conventional medium polarity aprotic solvents such as dichloromethane (535.2 nm) and acetonitrile (531.6 nm).
The Nile red value for DEX:PG is 553 nm, indicating similar chemical behavior to Methanol (550 nm) and Ethanolamine (557 nm).

[2] = Stability of DFX under basic conditions (GC-FID/GC-MS, colour change); type: physicochemical; settings: Pyridine and KOAc
Experimental: To assess DFX stability under basic conditions, we tested a series of organic and inorganic bases at 80° C. and 110° C. for maximum 48 h (Table 6). Visual color change compared to a blank solution of pure DFX indicated some reactions were occurring. After 0.5 h, 24 h, 48 h of exposure, the samples were injected in GC-FID and GC-MS and the area of DFX was compared with the one in blank sample using decane as the internal standard. As a result of this experiment, we identified some potential limitations of this emerging solvent. Specifically, inorganic bases such as K2CO3, NaOH, CsCO3 led to the highest extent of degradation (maximum 21% after 48 h). Triethylamine (NEt3) caused less than 5% of degradation, but led to the formation of dark solution as well as K2CO3, NaOH, CsCO3. Probably, impurities existing in DFX (95% pure) also contribute to a color change as they could interact with bases.

[3] = Kamlet-Abboud-Taft solvatochromic parameters (dye absorption spectra); type: physicochemical; settings: for Kamlet-Taft Parameters Π* / Kamlet-Taft Parameters α / Kamlet-Taft Parameters β: Table 1a; for Kamlet-Abboud-Taft α / Kamlet-Abboud-Taft β / Kamlet-Abboud-Taft π: Table 1c; for Kamlet-Taft Π* / Kamlet-Taft α / Kamlet-Taft β: Table 4
Text: Determination of the Kamlet-Abboud-Taft parameters was based on the absorption spectrum of two dyes (N,N-diethyl-4-nitroaniline and 4-nitroaniline) in different solvents, that allow calculating corresponding values using known procedures (P. G. Jessop, D. A. Jessop, D. Fu and L. Phan, Green Chem., 2012, 14, 1245-1259).

CN(C)C=O [DMF, N,N-dimethylformamide]
maximum absorbance of Nile Red [1]: 541 nm

C1OC[C@H]2O[C@@H]3OCO[C@@H]3[C@H]2O1 [Compound 1, Diformylxylose]
effect on stability [2]: didn't show any significant effect | melting point: 48 °C

O=S1(=O)CCCC1 [Sulfolane]
Kamlet-Taft Parameters Π* [3]: 0.98 | Kamlet-Taft Parameters α [3]: 0.00 | Kamlet-Taft Parameters β [3]: 0.39 | maximum absorbance of Nile Red [1]: 545 nm

CCC1OC[C@H]2O[C@@H]3OC(CC)O[C@@H]3[C@H]2O1 (stereo partly shown) [Compound 3]
Kamlet-Abboud-Taft α [3]: 0 | Kamlet-Abboud-Taft β [3]: 0.63 | Kamlet-Abboud-Taft π [3]: 0.68 | maximum absorbance of Nile Red [1]: 536 nm | melting point: 34 °C

ClCCl [dichloromethane]
maximum absorbance of Nile Red [1]: 535.2 nm

NCCO [Ethanolamine]
maximum absorbance of Nile Red [1]: 557 nm

CCCCN1CCCC1=O [N-butylpyrrolidinone]
Kamlet-Taft Parameters Π* [3]: 0.77 | Kamlet-Taft Parameters α [3]: 0.00 | Kamlet-Taft Parameters β [3]: 0.92

CC1OC[C@H]2O[C@@H]3OC(C)O[C@@H]3[C@H]2O1 (stereo partly shown) [Compound 2]
melting point: 60 °C

C1COCCO1 [1,4-dioxane]
Kamlet-Taft Parameters Π* [3]: 0.55 | Kamlet-Taft Parameters α [3]: 0.00 | Kamlet-Taft Parameters β [3]: 0.37 | Kamlet-Abboud-Taft α [3]: 0 | Kamlet-Abboud-Taft β [3]: 0.37 | Kamlet-Abboud-Taft π [3]: 0.55

C[S+](C)[O-] [DMSO, dimethyl sulfoxide]
Kamlet-Taft Parameters Π* [3]: 1.00 | Kamlet-Taft Parameters α [3]: 0.00 | Kamlet-Taft Parameters β [3]: 0.74

CO [Methanol, methanol]
maximum absorbance of Nile Red [1]: 550 nm

C1CCCCC1 [Cyclohexane, cyclohexane]
Kamlet-Abboud-Taft α [3]: 0 | Kamlet-Abboud-Taft β [3]: 0 | Kamlet-Abboud-Taft π [3]: 0

O=C1OCCO1 [Ethylene carbonate]
Kamlet-Taft Parameters Π* [3]: 0.99 | Kamlet-Taft Parameters α [3]: 0.00 | Kamlet-Taft Parameters β [3]: 0.32

CC#N [Acetonitrile, acetonitrile]
Kamlet-Taft Π* [3]: 0.8 | Kamlet-Taft α [3]: 0.35 | Kamlet-Taft β [3]: 0.37 | maximum absorbance of Nile Red [1]: 531.6 nm

C1CCOC1 [THF, Tetrahydrofuran]
Kamlet-Abboud-Taft α [3]: 0 | Kamlet-Abboud-Taft β [3]: 0.55 | Kamlet-Abboud-Taft π [3]: 0.58

CC1CCCO1 (stereo not shown) [Compound 2-MeTHF, 2-methyltetrahydrofuran]
Kamlet-Abboud-Taft α [3]: 0 | Kamlet-Abboud-Taft β [3]: 0.58 | Kamlet-Abboud-Taft π [3]: 0.53

COC(=O)C1OC[C@H]2O[C@@H]3OC(C(=O)OC)O[C@@H]3[C@H]2O1 (stereo partly shown) [Compound 14]
melting point: 83 °C

CC(C)C1OC[C@H]2O[C@@H]3OC(C(C)C)O[C@@H]3[C@H]2O1 (stereo partly shown) [Compound 4]
Kamlet-Abboud-Taft α [3]: 0 | Kamlet-Abboud-Taft β [3]: 0.51 | Kamlet-Abboud-Taft π [3]: 0.63 | maximum absorbance of Nile Red [1]: 534.5 nm | melting point: 31 °C

CC(C)(C)C1OC[C@H]2O[C@@H]3OC(C(C)(C)C)O[C@@H]3[C@H]2O1 (stereo partly shown) [Compound 5]
melting point: 120 °C

CC(C)=O [Acetone, acetone]
Kamlet-Taft Π* [3]: 0.71 | Kamlet-Taft α [3]: 0.08 | Kamlet-Taft β [3]: 0.48

CC1(C)OC[C@H]2O[C@@H]3OC(C)(C)O[C@@H]3[C@H]2O1 [Compound 11]
melting point: 43 °C
